Measurements: patent publication US9339476B2, “Implantable meshes for controlling the movement of fluids” (Arch Biosurgery, Inc., priority 2013, dated 2016)

Experiments:
[1] = test system: blood activated clotting time (ACT); assay: Blood activated clotting time (ACT); type: in vivo, Sprague Dawley rats; details: 8 minutes following heparin injection (500 IU/kg, portal vein); baseline approximately 110 seconds
Method: (§1) Four female Sprague Dawley rats each weighing 300-320 g were anesthetized with a mixture of xylaxine/ketamine. When a suitable plane of anesthesia was reached, a ventral midline incision was made in the abdomen allowing for visualization and manipulation of the liver's right lobe. Further manipulation to expose the portal vein was performed to allow for withdrawal of 1 mL of blood for measurement of blood activated clotting time (ACT).
(§2) To determine whether hemostasis could be achieved in the presence of anticoagulant, heparin was then administered to the animal at a dose of 500 IU per kg body weight injected directly into the portal vein. Two minutes after heparin injection, a second 4 mm diameter biopsy punch lesion was made adjacent to the first lesion in the right lobe of the liver and 0.5 ml of a 3% aqueous RADA4 peptide solution was again added to the lesion.

[2] = test system: 4 mm diameter biopsy punch lesion of the liver's right lobe with brisk bleeding; assay: Rat liver biopsy punch model, hemostasis; type: in vivo, Sprague Dawley rats
Method: (§3) A self-assembling peptide having the sequence RADARADARADARADA (RADA4; SEQ. ID. NO: 1) acetate salt was reconstituted in sterile water to 3%. The material was stored at […] in a cooler with cold pack over it until brought to the study facility. Lyo cakes of 3 vials were crushed using a spatula and then combined in 1 vial. The combined content was reconstituted with 1 mL volume of sterile water for injection. The lyophilized formulation went in solution easily in 1-2 minutes and was vortexed for 30 seconds before use.
as §1
A wooden spatula was then placed behind the right lobe of the liver and a 4 mm diameter biopsy punch was used to remove a full thickness 4 mm diameter section of the liver resulting in a lesion with brisk bleeding.
Immediately, 0.5 mL of a 3% aqueous solution of pre-formulated RADA4 peptide reconstituted in sterile water was applied to the biopsy site using a 22½ gauge needle.

[3] = test system: second 4 mm diameter biopsy punch lesion in the right lobe of the liver; assay: Rat liver biopsy punch model, hemostasis in the presence of anticoagulant (heparin); type: in vivo, Sprague Dawley rats
Method: as §2

[4] = Reconstitution of lyophilized formulation in sterile water for injection; type: physicochemical; details: lyo cakes of 3 vials combined, reconstituted with 1 mL sterile water for injection
Method: as §3

Substance | ACT measurement [1] | time until bleeding stopped completely ([2]; 0.5 mL of 3% aqueous solution applied to 4 mm liver biopsy site, no anticoagulant) | producing hemostasis (overall outcome) ([2]; 3% aqueous solution, absence of clinically significant anticoagulation) | stability of hemostasis at later assessment ([2]; 10 minutes following application, no anticoagulant) | time until bleeding stopped ([3]; 0.5 ml of 3% aqueous solution, lesion made two minutes after heparin 500 IU per kg into the portal vein) | producing hemostasis (overall outcome) ([3]; 3% aqueous solution, presence of clinically significant anticoagulation) | stability of hemostasis at later assessment ([3]; at 10 minutes, after heparin 500 IU per kg) | time for lyophilized formulation to go in solution [4]
heparin | greater than 1,300 seconds |  |  |  |  |  |  | 
RADARADARADARADA [RADA4] |  | ≤ 30 s | successful | stable without further bleeding | ≤ 30 s | successful | stable | 1 to 2 min
